Read-outs that look alike come from different tables or passages of the source.
Key:
Test in all cases: selectivity profiling in a panel of 340 wild-type kinases (Reaction Biology Europe)
Format in all cases: binding
340 wild-type kinases [1] = target: T1, 340 wild-type kinases (Homo sapiens, UniProt O14965)
T1 construct: purchased Reaction Biology Europe
T1 sequence (O14965 1-403): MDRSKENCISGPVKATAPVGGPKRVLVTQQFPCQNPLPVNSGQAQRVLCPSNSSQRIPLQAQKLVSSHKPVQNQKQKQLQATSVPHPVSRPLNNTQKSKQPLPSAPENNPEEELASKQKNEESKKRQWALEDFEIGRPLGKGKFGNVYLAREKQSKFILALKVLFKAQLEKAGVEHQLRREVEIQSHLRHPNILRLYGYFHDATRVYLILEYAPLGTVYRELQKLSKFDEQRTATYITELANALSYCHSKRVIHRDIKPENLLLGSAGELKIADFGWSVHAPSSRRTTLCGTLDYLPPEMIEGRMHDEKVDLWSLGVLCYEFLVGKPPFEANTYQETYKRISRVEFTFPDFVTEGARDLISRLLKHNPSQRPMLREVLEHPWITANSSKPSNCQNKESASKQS

340 wild-type kinases [2] = target: T2, 340 wild-type kinases (Homo sapiens, UniProt P54760)
T2 construct: purchased Reaction Biology Europe
T2 sequence (P54760 16-987): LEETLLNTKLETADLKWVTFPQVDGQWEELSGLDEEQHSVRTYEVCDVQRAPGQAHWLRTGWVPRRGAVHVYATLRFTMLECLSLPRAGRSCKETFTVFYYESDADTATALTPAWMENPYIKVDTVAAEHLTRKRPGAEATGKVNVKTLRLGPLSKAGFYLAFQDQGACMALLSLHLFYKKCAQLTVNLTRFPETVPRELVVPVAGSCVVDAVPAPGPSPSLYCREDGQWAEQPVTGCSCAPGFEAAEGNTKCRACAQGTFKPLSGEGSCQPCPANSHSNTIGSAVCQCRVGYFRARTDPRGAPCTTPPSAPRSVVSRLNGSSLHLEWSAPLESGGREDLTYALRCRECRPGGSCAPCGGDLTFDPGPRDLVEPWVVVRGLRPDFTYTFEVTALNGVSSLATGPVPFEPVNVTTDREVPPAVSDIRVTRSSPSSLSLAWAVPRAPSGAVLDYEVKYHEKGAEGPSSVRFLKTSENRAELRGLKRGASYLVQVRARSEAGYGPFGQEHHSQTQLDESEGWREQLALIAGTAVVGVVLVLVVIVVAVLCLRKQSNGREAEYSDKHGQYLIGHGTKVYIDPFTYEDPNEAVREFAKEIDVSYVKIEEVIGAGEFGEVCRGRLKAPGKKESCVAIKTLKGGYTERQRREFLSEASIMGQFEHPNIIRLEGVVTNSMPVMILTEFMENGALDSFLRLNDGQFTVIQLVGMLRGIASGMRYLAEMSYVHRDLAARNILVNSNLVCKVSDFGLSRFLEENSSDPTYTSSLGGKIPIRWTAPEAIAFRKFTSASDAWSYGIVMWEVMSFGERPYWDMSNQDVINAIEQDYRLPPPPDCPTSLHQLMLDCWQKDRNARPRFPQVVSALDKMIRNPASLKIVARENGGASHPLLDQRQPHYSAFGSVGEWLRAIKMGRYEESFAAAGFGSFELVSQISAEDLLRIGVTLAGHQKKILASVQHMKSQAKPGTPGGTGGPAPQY

340 wild-type kinases [3] = target: T3, 340 wild-type kinases (Homo sapiens, UniProt P78368)
T3 construct: purchased Reaction Biology Europe

340 wild-type kinases [4] = target: T4, 340 wild-type kinases (Homo sapiens, UniProt Q16832)
T4 construct: purchased Reaction Biology Europe
T4 sequence (Q16832 22-855): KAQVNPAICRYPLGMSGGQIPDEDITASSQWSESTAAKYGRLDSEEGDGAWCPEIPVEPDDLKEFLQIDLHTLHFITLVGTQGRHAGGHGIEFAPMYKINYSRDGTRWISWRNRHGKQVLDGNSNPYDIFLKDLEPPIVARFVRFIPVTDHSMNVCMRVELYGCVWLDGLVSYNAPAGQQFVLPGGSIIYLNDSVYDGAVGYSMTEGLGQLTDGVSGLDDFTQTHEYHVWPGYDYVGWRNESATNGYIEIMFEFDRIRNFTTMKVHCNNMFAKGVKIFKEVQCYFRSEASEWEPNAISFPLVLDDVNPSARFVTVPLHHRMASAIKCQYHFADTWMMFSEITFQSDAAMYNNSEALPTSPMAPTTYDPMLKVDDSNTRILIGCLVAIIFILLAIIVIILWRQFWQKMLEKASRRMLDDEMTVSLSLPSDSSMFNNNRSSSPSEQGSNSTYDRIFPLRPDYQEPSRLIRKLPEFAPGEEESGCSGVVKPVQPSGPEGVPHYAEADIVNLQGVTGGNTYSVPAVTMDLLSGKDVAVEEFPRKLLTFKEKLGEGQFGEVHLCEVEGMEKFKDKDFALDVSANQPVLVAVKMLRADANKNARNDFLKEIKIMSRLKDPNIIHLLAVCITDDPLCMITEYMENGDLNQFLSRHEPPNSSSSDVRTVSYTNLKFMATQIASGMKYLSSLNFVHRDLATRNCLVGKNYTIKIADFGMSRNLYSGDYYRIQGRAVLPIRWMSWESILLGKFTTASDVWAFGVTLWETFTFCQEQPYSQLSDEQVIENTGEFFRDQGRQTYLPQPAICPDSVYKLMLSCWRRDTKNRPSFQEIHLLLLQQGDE

340 wild-type kinases [5] = target: T5, 340 wild-type kinases (Homo sapiens, UniProt Q96KB5)
T5 construct: purchased Reaction Biology Europe
T5 sequence (Q96KB5 1-322): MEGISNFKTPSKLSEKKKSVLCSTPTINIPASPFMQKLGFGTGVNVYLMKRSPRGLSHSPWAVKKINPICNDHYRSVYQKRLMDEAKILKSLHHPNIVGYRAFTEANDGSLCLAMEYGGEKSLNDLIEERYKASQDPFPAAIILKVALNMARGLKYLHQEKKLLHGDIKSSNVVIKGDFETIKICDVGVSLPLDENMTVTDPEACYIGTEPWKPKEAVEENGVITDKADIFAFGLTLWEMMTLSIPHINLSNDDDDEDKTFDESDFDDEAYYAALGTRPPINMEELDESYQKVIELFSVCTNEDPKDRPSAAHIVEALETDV

T3 sequence (P78368 whole entry): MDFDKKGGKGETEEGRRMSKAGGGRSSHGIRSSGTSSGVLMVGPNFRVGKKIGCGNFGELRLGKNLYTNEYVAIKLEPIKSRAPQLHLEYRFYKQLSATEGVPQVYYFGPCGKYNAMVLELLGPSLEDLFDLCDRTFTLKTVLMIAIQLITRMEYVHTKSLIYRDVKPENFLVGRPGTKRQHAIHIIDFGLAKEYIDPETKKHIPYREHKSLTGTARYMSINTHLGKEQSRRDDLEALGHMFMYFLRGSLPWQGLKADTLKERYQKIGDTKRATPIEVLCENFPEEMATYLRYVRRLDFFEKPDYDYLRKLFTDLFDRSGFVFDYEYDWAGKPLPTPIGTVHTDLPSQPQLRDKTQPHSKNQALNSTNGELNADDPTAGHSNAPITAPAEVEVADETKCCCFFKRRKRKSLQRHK

CNC(=O)c1ccc2c(c1)C(=O)c1ccc(Nc3ccc(F)c(NC(=O)C4CC4)c3)cc1CC2 [Compound 2015] gave a remaining activity at 0.2 µM (340 wild-type kinases [1]; 0.2 µM 2015, read-out: AuroraA residual activity) of 98.6%, a remaining activity at 1 µM (340 wild-type kinases [1]; 1 µM 2015, read-out: AuroraA residual activity) of 103% and a remaining activity at 0.2 µM (340 wild-type kinases [1]; AuroraA, 0.2 µM, read-out: residual activity) of 98.5%. It also gave a remaining activity at 1 µM (340 wild-type kinases [1]; AuroraA, 1 µM, read-out: residual activity) of 103%, a remaining activity at 0.2 µM (340 wild-type kinases [2]; 0.2 µM 2015, read-out: EPHB4 residual activity) of 101% and a remaining activity at 1 µM (340 wild-type kinases [2]; 1 µM 2015, read-out: EPHB4 residual activity) of 91.8%. The remaining activity at 0.2 µM (340 wild-type kinases [2]; EPHB4, 0.2 µM, read-out: residual activity) was 101%, the remaining activity at 1 µM (340 wild-type kinases [2]; EPHB4, 1 µM, read-out: residual activity) was 91.8% and the remaining activity at 0.2 µM (340 wild-type kinases [3]; 0.2 µM 2015, read-out: CK1gamma2 residual activity) was 111%. The remaining activity at 1 µM (340 wild-type kinases [3]; 1 µM 2015, read-out: CK1gamma2 residual activity) was 113%, the remaining activity at 0.2 µM (340 wild-type kinases [3]; CK1gamma2, 0.2 µM, read-out: residual activity) was 111% and the remaining activity at 1 µM (340 wild-type kinases [3]; CK1gamma2, 1 µM, read-out: residual activity) was 113%. For the same molecule, the remaining activity at 0.2 µM (340 wild-type kinases [4]; 0.2 µM 2015, read-out: DDR2 residual activity) was 106%, the remaining activity at 1 µM (340 wild-type kinases [4]; 1 µM 2015, read-out: DDR2 residual activity) was 98.8% and the remaining activity at 0.2 µM (340 wild-type kinases [4]; DDR2, 0.2 µM, read-out: residual activity) was 106%. It also gave a remaining activity at 1 µM (340 wild-type kinases [4]; DDR2, 1 µM, read-out: residual activity) of 98.8%, a remaining activity at 0.2 µM (340 wild-type kinases [5]; 0.2 µM 2015, read-out: PBK residual activity) of 96.5% and a remaining activity at 1 µM (340 wild-type kinases [5]; 1 µM 2015, read-out: PBK residual activity) of 79.7%. It also gave a remaining activity at 0.2 µM (340 wild-type kinases [5]; PBK, 0.2 µM, read-out: residual activity) of 96.5% and a remaining activity at 1 µM (340 wild-type kinases [5]; PBK, 1 µM, read-out: residual activity) of 79.7%.

Source: PMC11864979, “First-in-class ultralong-target-residence-time p38α inhibitors as a mitosis-targeted therapy for colorectal cancer” (Nature Cancer, 2025)
